Literature values, collected in patent US10822355B2, “Ultralow-power near infrared lamp light operable targeted organic nanoparticle photodynamic therapy” (University of Massachusetts, priority 2016, dated 2020).

How the values were obtained:
[1] = for ε: at 525 nm (B-1), 630 nm (B-2), 661 nm (B-3); for ΦF (%) / ε/10^5 M^−1 cm^−1 / λabs (max) / λem (max): literature values (References S2, S6, S7)
[2] = for ΦΔ (%): literature values (References S2, S6, S7)

Compound	ε [1] [M⁻¹ cm⁻¹]	ΦF (%) [1] [%]	ε/10^5 M^−1 cm^−1 [1]	λabs (max) [1]	λem (max) [1]	ΦΔ (%) [2] [%]	ΦΔ of reference ([2]; in dichloromethane)
2,6-diiodio-BODIPY [B-1]	85000	3	0.85 10^5 M^−1 cm^−1	529	548	79.5	
2,6-diiodiodistyl-BODIPY [B-3]	98000	7	0.98 10^5 M^−1 cm^−1	661	689	61.2	
2,6-diiodiodistyl-BODIPY [B-2]	77000	5	0.77 10^5 M^−1 cm^−1	630	654	69.0	
CN(C)c1ccc2nc3ccc(=[N+](C)C)cc-3sc2c1 [methyl blue, methylene blue]							0.52
